How the values were obtained:
Terang soil = assay: Soil microcosm incubation (nitrification of applied ammonium), Terang soil; conditions: Terang soil pH 6.5, 25° C., L-DMPP 1.5 mol %; for Nitrified NH4+—N (%) Day 3: compounds 10 mol % of applied N, (NH4)2SO4 100 mg N per kg soil; for Nitrified NH4+—N (%) Day 7 / Nitrified NH4+—N (%) Day 14 / Nitrified NH4+—N (%) Day 28: compounds 10 mol %
Method: (§1) The soil used in this study was collected from four different locations in Victoria, Australia: (i) a wheat cropping soil from Horsham (36° 45′S, 142° 07′ E), (ii) a rotational cropping soil from Dahlen (36° 37′S, 142° 09′ E), (iii) a vegetable growing soil from Clyde (38° 08′S, 145° 20′ E), and (iv) a pasture soil from Terang (38° 15′S, 142° 52′E). In addition, a sugarcane cropping soil from South Johnstone in northern Queensland (17° 34′S, 145° 57′ E) was also studied. The water content of the soil was calculated before commencing each experiment, from samples that were oven-dried to constant weight. The soil's water-filled pore space (WFPS) was in the range 52%-61%, which is within the recommended 50-70% range for microbial activity due to oxygen and nutrient availability (Fichtner, T., et al., Applied Sciences, 2019, 9, 496).
(§2) Soil microcosm incubations were carried out in 250 ml polypropylene specimen containers (Sarstedt, Germany), containing 18.24 g oven dry-weight equivalent of soil. Microcosms were re-wetted and pre-incubated at the test temperature for seven days to revive soil microbial activity. Following pre-incubation, the remaining volume to reach the desired water-filled pore spaces (WFPS %) was applied as one of the following treatment solutions; (NH4)2SO4(Control), (NH4)2SO4+DMPP, or (NH4)2SO4+one of Compounds 1-23. Each treatment was applied in triplicate per soil type, so that n=3 at each time point.
(§3) Treatment solutions were prepared such that each microcosm received (NH4)2SO4 at a rate of 100 mg N per kg soil, Compounds 1-23 at 10 mol % of applied N, or DMPP at one of 1.5, 3.6 or 10 mol % of applied N, referred to as L-DMPP, M-DMPP or H-DMPP respectively.
(§4) The microcosms were incubated for 0, 3, 7, 14, 21 or 28 days, where day 0 samples were extracted following 1-hour incubation post-treatment. Soil microcosms were aerated and moisture levels were replenished based on weight loss every few days throughout the incubation period.
(§5) At the end of each incubation period, soil microcosms were destructively sampled by treatment with 2M KCl (100 mL). After shaking for 1 hour, soil-KCl solutions were filtered (Whatman 42) before storing the filtrates at −20° C. until the conclusion of the experiment. All KCl extracts were then analysed by Segmented Flow Analysis (San++, Skalar, Breda, The Netherlands) for the concentration of nitrogen from ammonium (NH4^+—N) and nitrogen from NO3 and NO2 (NOx^−—N) after appropriate dilutions. Results are reported as the mean of three replicates, errors reported are standard errors of the mean.
(§6) Nitrification calculations were performed as previously reported (Aulakh, M., et al., Biology and Fertility of Soils 2001, 33, 258-263; Mahmood, T., et al., Soil Research 2017, 55, 715-722) without correction for the initial baseline concentrations of NH4^+—N or NO3^− N in the untreated soil. For each treatment nitrified NH4^+—N (%) was calculated according to eqn. 1:
(§7) where [NH4^+—N]0 is the NH4^+—N concentration (in mg N kg^−1 soil) of the soil on day 0 and [NH4^+—N]t is the NH4^+—N concentration (in mg N kg^−1 soil) of the soil at a given time point t.

Dahlen soil = assay: Soil microcosm incubation (nitrification of applied ammonium), Dahlen soil; conditions: for Nitrified NH4+—N (%) Day 3 / Nitrified NH4+—N (%) Day 7 / Nitrified NH4+—N (%) Day 14 / Nitrified NH4+—N (%) Day 21 / Nitrified NH4+—N (%) Day 28: 10 mol %
Method: as §1, §2, §3, §4, §5, §6, §7
(§8) NOx^−—N accumulation rates (mg NOx^−—N/kg soil/day) over the 28-day incubation experiments were calculated for each treatment as in the following (eqn. 2):
(§9) [NOx^−—N]t=0 and [NOx^−—N]t=28 are the combined concentrations of nitrite (NO2) and nitrate (NO3) in the soil (in mg N kg^−1 soil) on day 0 and day 28, respectively.

Horsham soil = assay: Soil microcosm incubation (nitrification of applied ammonium), Horsham soil
Method: as §1, §2, §3, §4, §5, §6, §7, §8, §9

South Johnstone soil = assay: Soil microcosm incubation (nitrification of applied ammonium), South Johnstone soil; conditions: for Nitrified NH4+—N (%) Day 3 / Nitrified NH4+—N (%) Day 7 / Nitrified NH4+—N (%) Day 14 / Nitrified NH4+—N (%) Day 21 / Nitrified NH4+—N (%) Day 28: 10 mol %
Method: as §1, §2, §3, §4, §5, §6, §7

[1] = Dahlen soil, 35° C., after 28 days
[2] = Table 4, Dahlen soil pH 7.3, 25° C.
[3] = Table 4, Dahlen soil pH 7.3, 35° C.
[4] = Horsham soil pH 8.8, 25° C., 10 mol %
[5] = Horsham soil pH 8.8, 35° C., 10 mol %
[6] = South Johnstone soil pH 5.0, 25° C.
[7] = South Johnstone soil pH 5.0, 35° C.
[8] = Table 5, Dahlen soil pH 7.3, 25° C.
[9] = Table 5, Dahlen soil pH 7.3, 35° C.

With `CCCCCc1cn(CCCC)nn1` [Compound 1, 1-butyl-4-pentyl-1H-1,2,3-triazole] the “Nitrified NH4+—N (%) Day 3” value (Terang soil) was 13.6 ± 3.1%, the “Nitrified NH4+—N (%) Day 7” value (Terang soil) was 43.1 ± 3.7% and the “Nitrified NH4+—N (%) Day 14” value (Terang soil) was 85.1 ± 4.5%. The “Nitrified NH4+—N (%) Day 28” value (Terang soil) was 100 ± 4.2%.
`CCCCn1cc(C(C)(C)O)nn1` [Compound 4, 1-butyl-4-(α,α-dimethylmethanol)-1H-1,2,3-triazole] was tested, and the “Nitrified NH4+—N (%) Day 3” value (Terang soil) was 27.0 ± 7.5%, the “Nitrified NH4+—N (%) Day 7” value (Terang soil) was 67.3 ± 5.2% and the “Nitrified NH4+—N (%) Day 14” value (Terang soil) was 96.4 ± 5.8%. For the same compound, the “Nitrified NH4+—N (%) Day 28” value (Terang soil) was 100 ± 5.9%.
For `C#CCCn1cc(CCC)nn1` [Compound 17, 1-(3-butyn-1-yl)-4-propyl-1H-1,2,3-triazole], the “NOx−—N accumulation rate” value (Dahlen soil; Dahlen soil, 25° C., 28-day incubation) was 4.7 mg NOx−—N/kg soil/day, the “retaining NH4+—N vs uninhibited control treatment and DMPP” value (Dahlen soil; Dahlen soil, 25° C., after 28 days) was “performed statistically better” and the “NOx−—N accumulation rate: effect of temperature (25° C. vs 35° C.)” value (Dahlen soil; Dahlen soil, 28-day incubation) was “largest reduction in the accumulation rate”. For the same compound, the “NOx−—N accumulation rate” value (Dahlen soil; Dahlen soil, 35° C., 28-day incubation) was 2.4 mg NOx−—N/kg soil/day, the ammonia consumption (Dahlen soil; [1]) was 38% and the “retaining NH4+ vs both DMPP treatment and control treatment” value (Dahlen soil; [1]) was “performed statistically better”. The “Nitrified NH4+—N (%) Day 3” value (Dahlen soil; [2]) was 3.0 ± 1.3%, the “Nitrified NH4+—N (%) Day 7” value (Dahlen soil; [2]) was 10.4 ± 3.6% and the “Nitrified NH4+—N (%) Day 14” value (Dahlen soil; [2]) was 12.1 ± 3.2%. The “Nitrified NH4+—N (%) Day 21” value (Dahlen soil; [2]) was 22.2 ± 5.0%, the “Nitrified NH4+—N (%) Day 28” value (Dahlen soil; [2]) was 36.4 ± 6.8% and the “Nitrified NH4+—N (%) Day 3” value (Dahlen soil; [3]) was 6.3 ± 2.2%. The “Nitrified NH4+—N (%) Day 7” value (Dahlen soil; [3]) was 8.8 ± 1.9%, the “Nitrified NH4+—N (%) Day 14” value (Dahlen soil; [3]) was 17.7 ± 2.6% and the “Nitrified NH4+—N (%) Day 21” value (Dahlen soil; [3]) was 38.0 ± 2.8%. The “Nitrified NH4+—N (%) Day 28” value (Dahlen soil; [3]) was 37.6 ± 3.1%, the “Nitrified NH4+—N (%) Day 3” value (Horsham soil; Horsham soil pH 8.8, 25° C., inhibitors 10 mol % of applied N) was 13.5 ± 4.7% and the “Nitrified NH4+—N (%) Day 7” value (Horsham soil; [4]) was 30.6 ± 5.5%. For the same compound, the “Nitrified NH4+—N (%) Day 14” value (Horsham soil; [4]) was 35.1 ± 5.1%, the “Nitrified NH4+—N (%) Day 21” value (Horsham soil; [4]) was 43.9 ± 5.7% and the “Nitrified NH4+—N (%) Day 28” value (Horsham soil; [4]) was 65.8 ± 5.2%. For the same compound, the “Nitrified NH4+—N (%) Day 3” value (Horsham soil; [5]) was −0.8 ± 3.4%, the “Nitrified NH4+—N (%) Day 7” value (Horsham soil; [5]) was 8.5 ± 2.8% and the “Nitrified NH4+—N (%) Day 14” value (Horsham soil; [5]) was 37.2 ± 2.3%. For the same compound, the “Nitrified NH4+—N (%) Day 21” value (Horsham soil; [5]) was 75.7 ± 5.4%, the “Nitrified NH4+—N (%) Day 28” value (Horsham soil; [5]) was 76.2 ± 2.1% and the “retaining NH4+ vs uninhibited control treatment” value (Horsham soil; Horsham soil, 25° C., after 28 days) was “performed statistically better”. For the same compound, the “nitrification rates vs uninhibited control treatment” value (Horsham soil; Horsham soil, 35° C.) was “lower nitrification rates than the uninhibited control treatment”.
In the case of `C=CCn1cc(CCC)nn1` [Compound 18, 1-(2-propen-1-yl)-4-propyl-1H-1,2,3-triazole], the “Nitrified NH4+—N (%) Day 3” value (South Johnstone soil; South Johnstone soil pH 5.0, 25° C., negative = NH4+—N higher than day 0 (mineralisation)) is reported as −6.2 ± 0.9%, the “Nitrified NH4+—N (%) Day 7” value (South Johnstone soil; [6]) is reported as −8.5 ± 1.0% and the “Nitrified NH4+—N (%) Day 14” value (South Johnstone soil; [6]) is reported as −11.0 ± 1.0%. For the same compound, the “Nitrified NH4+—N (%) Day 21” value (South Johnstone soil; [6]) was −12.1 ± 1.4%, the “Nitrified NH4+—N (%) Day 28” value (South Johnstone soil; South Johnstone soil pH 5.0, 25° C., day 28) was −14.9 ± 1.4% and the “Nitrified NH4+—N (%) Day 3” value (South Johnstone soil; [7]) was −11.7 ± 2.0%. The “Nitrified NH4+—N (%) Day 7” value (South Johnstone soil; [7]) was −28.7 ± 1.5%, the “Nitrified NH4+—N (%) Day 14” value (South Johnstone soil; [7]) was −35.8 ± 1.3% and the “Nitrified NH4+—N (%) Day 21” value (South Johnstone soil; [7]) was −31.7 ± 1.1%. The “Nitrified NH4+—N (%) Day 28” value (South Johnstone soil; South Johnstone soil pH 5.0, 35° C., day 28) was −16.9 ± 1.8%, the “effectiveness compared to treatment with DMPP (higher NH4+—N, lower NOx−—N)” value (South Johnstone soil; South Johnstone soil, 25° C., day 28) was “statistically higher effectiveness” and the “retaining NH4+—N vs DMPP” value (South Johnstone soil; South Johnstone soil, 35° C.) was “performed statistically better than DMPP”. The “retaining NH4+—N and slowing NOx−—N growth vs fertilised control” value (South Johnstone soil; South Johnstone soil, 35° C., day 28) was “performed statistically better than the fertilised control”, the “retaining NH4+—N levels by day 28 vs fertilised control (and DMPP)” value (Dahlen soil; Dahlen soil, 25° C., Table 5 test) was “performed statistically better” and the “retaining NH4+—N vs (NH4)2SO4-treated control by day 28” value (Dahlen soil; Dahlen soil, 35° C., Table 5 test) was “remain highly effective”. For the same compound, the “Nitrified NH4+—N (%) Day 3” value (Dahlen soil; Table 5 (further comparative test), Dahlen soil pH 7.3, 25° C.) was 5.1 ± 5.3%, the “Nitrified NH4+—N (%) Day 7” value (Dahlen soil; [8]) was 4.4 ± 1.1% and the “Nitrified NH4+—N (%) Day 14” value (Dahlen soil; [8]) was 29.4 ± 2.4%. The “Nitrified NH4+—N (%) Day 21” value (Dahlen soil; [8]) was 32.1 ± 2.3%, the “Nitrified NH4+—N (%) Day 28” value (Dahlen soil; [8]) was 40.5 ± 1.5% and the “Nitrified NH4+—N (%) Day 3” value (Dahlen soil; [9]) was 9.0 ± 4.3%. The “Nitrified NH4+—N (%) Day 7” value (Dahlen soil; [9]) was 4.5 ± 4.3%, the “Nitrified NH4+—N (%) Day 14” value (Dahlen soil; [9]) was 26.7 ± 3.9% and the “Nitrified NH4+—N (%) Day 21” value (Dahlen soil; [9]) was 19.8 ± 5.0%. The “Nitrified NH4+—N (%) Day 28” value (Dahlen soil; [9]) was 43.0 ± 4.7%.
For `CCCc1cn(CC(=O)OCC)nn1` [Compound 19, ethyl 2-(4-propyl-1H-1,2,3-triazol-1-yl)-acetate], the “effectiveness among the treatments (NH4+—N retention, NOx−—N growth)” value (South Johnstone soil; South Johnstone soil, 25° C., days 21 and 28) was “least effective”.

— US20220324770A1, “NITRIFICATION INHIBITORS” (The University of Melbourne, priority 2019, published 2022)
